# Reference: patent US12037324B2, “Biarylmethyl heterocycles” (Université de Montréal, priority 2016, dated 2024)
# Key:
# Format in all cases: cell-based
# [1] = target: T1, AGTR1 (Homo sapiens, UniProt P30556); assay: DiscoveRx β-arrestin2 recruitment assay (enzyme complementation, Pathunter CHO-K1 AGTR1 β-arrestin cell line); conditions: DiscoveRx β-arrestin2 recruitment; for DiscoveRx β-arrestin2 Ymax (%): maximal response
# T1 construct: host or cells: Pathunter CHO-K1 AGTR1 β-arrestin cell line (CHO-K1)
# T1 sequence (P30556 1-359): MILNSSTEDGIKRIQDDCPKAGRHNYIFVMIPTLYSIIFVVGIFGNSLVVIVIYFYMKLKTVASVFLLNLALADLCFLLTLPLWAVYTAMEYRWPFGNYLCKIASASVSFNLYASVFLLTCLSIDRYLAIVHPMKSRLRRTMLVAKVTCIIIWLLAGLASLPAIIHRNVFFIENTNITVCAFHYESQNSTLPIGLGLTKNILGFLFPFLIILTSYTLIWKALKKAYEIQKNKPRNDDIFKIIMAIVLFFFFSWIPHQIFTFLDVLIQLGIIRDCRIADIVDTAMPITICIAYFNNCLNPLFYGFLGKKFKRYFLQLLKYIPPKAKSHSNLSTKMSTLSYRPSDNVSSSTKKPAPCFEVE
# Method: In one aspect of the invention, signaling bias of compounds was assessed by comparing the relative activity of compounds to activate both the β-arrestin and Gq signaling pathways. In order to confirm signaling bias, compounds were studied in two different assay formats. DiscoveRx β-arrestin2 Recruitment and IP1 Assays β-arrestin2 recruitment to activated receptors can be assessed using an enzyme complementation method (Zhao, Jones et al. 2008). […] Cells (5000/well) were plated into 1536 well plates (Cellocoat plates, Greiner Bio One, Monroe, NC) 14-16 hours before each experiment in 20 μl DMEM/F12 medium (Thermo-Fisher Scientific, Carlsbad, CA) containing heat-inactivated 1% fetal bovine serum. Subsequently, the compounds of interest were added at varying concentrations to the wells in a volume of 200 nl and the cells incubated for 90 min at 37° C. The detection reagent (10 μl) was added to each well and the plates incubated at room temperature for 1 hour before measurement of chemiluminescence using an EnVision Multilabel Reader (Perkin-Elmer, Waltham, MA). The data are processed using Toolset for Runmaster QCMulti. Concentration-response curves are fitted and EC50s (agonist mode) and IC50s (antagonist mode) estimated using a 4-parameter logistic equation. Compound activities are reported as a relative percentage to the maximal effect of All in the assays.
# [2] = target: T1, AGTR1; assay: DiscoveRx IP1 accumulation assay (HTRF), agonist mode, Pathunter CHO-K1 AGTR1 β-arrestin cell line; conditions: for EC50: read-out: IP-1 EC50
# Method: In one aspect of the invention, signaling bias of compounds was assessed by comparing the relative activity of compounds to activate both the β-arrestin and Gq signaling pathways. In order to confirm signaling bias, compounds were studied in two different assay formats.
# DiscoveRx β-arrestin2 Recruitment and IP1 Assays
# Gq activation can be assessed by measuring the accumulation of inositol phosphates (e.g. IP3, IP1) that are liberated following activation of phospholipase C by Gq (Thomsen, Frazer et al. 2005). In the current invention we have utilized the DiscoveRx Pathunter CHO-K1 AGTR1 β-arrestin cell line to also measure IP1 accumulation in response to compounds. IP1 accumulation was measured in both agonist and antagonist modes. In agonist mode, cells are plated as above 14-16 hours before the experiment. The medium is then removed and compounds at varying concentrations added in a final volume of 20 μl. The cells are incubated at 37° C. for 90 min. IP1 accumulation detected using a commercial HTRF assay according to manufacturer's instructions (Cisbio, Bedford, MA). Specifically, 4 μl of D2-conjugate solution (diluted 1:20 in Cisbio HTRF assay buffer) is added to each well, followed by the addition of 4 μl of anti-IP1 cryptate diluted 1:20 in HTRF assay buffer and the plates incubated for 20 min at room temperature. 14 μl from each well is measured using an Envision multi-label reader and data processed using Toolset for Runmaster QCMulti. Concentration-response curves are fitted and EC50s (agonist mode) and IC50s (antagonist mode) estimated using a 4-parameter logistic equation. Compound activities are reported as a relative percentage to the maximal effect of All in the assays.
# [3] = target: T2, hAT1R (Homo sapiens, UniProt P30556); assay: BRET β-arrestin2 biosensor assay, higher receptor expression (hAT1R 5 ng/well), HEK293 cells; conditions: for EC50: High AT1R Expression
# T2 sequence (P30556 1-359): T1 sequence (P30556 1-359)
Compound,EC50 [1] [nM],DiscoveRx β-arrestin2 Ymax (%) [1] [%],IP-1 Ymax (%) [2] [%],EC50 [2] [nM],BRET β-Arrestin2 High AT1R Expression Ymax (%) [3] [%],EC50 [3] [nM]
"CCCCOC(=O)NS(=O)(=O)c1sc(-c2ccccc2)cc1-c1ccc(Cn2c(CC)nc3c(C)cc(C)nc32)cc1 [Example 49, Butyl (3-(4-((2-ethyl-5,7-dimethyl-3H-imidazo[4,5-b]pyridin-3-yl)methyl)phenyl)-5-phenylthiophen-2-yl)sulfonylcarbamate]",10.9,47.6,4.2,21,78.3,11.2
"CCCCOC(=O)NS(=O)(=O)c1sc(-c2ccccc2)cc1-c1ccc(Cn2c(CC)nc3c(C)cc(C)nc32)cn1 [Example 50, Butyl (3-(5-((2-ethyl-5,7-dimethyl-3H-imidazo[4,5-b]pyridin-3-yl)methyl)pyridin-2-yl)-5-phenylthiophen-2-yl)sulfonylcarbamate]",10.9,21.8,6.7,132,64.9,16.8
CCc1nc2c(C)cc(C)nc2n1Cc1ccc(-c2cc(N3CCC(F)(F)C3)ccc2-c2nn[nH]n2)cc1 [Example 51],21.2,21.1,3.7,92.1,43.8,99
CCc1nc2c(C)cc(C)nc2n1Cc1ccc(-c2cc(-c3cccnc3)ccc2-c2nn[nH]n2)cc1 [Example 52],5.5,5.0,–,> 1000,23.4,30.7
CCc1nc2c(C)cc(C)nc2n1Cc1ccc(-c2cc(-c3ccc(F)cc3F)ccc2-c2nn[nH]n2)cc1 [Example 54],5.9,39.5,7.0,10.5,89.7,5.7
CCc1nc2c(C)cc(C)nc2n1Cc1ccc(-c2cc(-c3cncn3C)ccc2-c2nn[nH]n2)cc1 [Example 58],86.2,12.7,3.1,427,46.2,190
"CCc1nc2c(C)cc(C)nc2n1Cc1ccc(-c2cc(-c3ccccc3)ccc2OCC(=O)O)cc1 [Example 69, 2-((4″-((2-ethyl-5,7-dimethyl-3H-imidazo[4,5-b]pyridin-3-yl)methyl)-[1,1′:3′,1″-terphenyl]-4′-yl)oxy)acetic acid]",376,8.5,–,> 100000,10.3,1500
"CCc1nc2c(C)cc(C)nc2n1Cc1ccc(-c2cc(C3=CCCCC3)ccc2-c2nn[nH]n2)cc1 [Example 70, 3-((6′-(2H-Tetrazol-5-yl)-2″,3″,4″,5″-tetrahydro-[1,1′:3′,1″-terphenyl]-4-yl)methyl)-2-ethyl-5,7-dimethyl-3H-imidazo[4,5-b]pyridine]",13.1,58.7,–,> 50000,94.7,7.1
"CCc1nc2c(C)cc(C)nc2n1Cc1ccc(-c2cc(C3CCCCC3)ccc2-c2nn[nH]n2)cc1 [Example 71, 3-((5′-Cyclohexyl-2′-(2H-tetrazol-5-yl)-[1,1′-biphenyl]-4-yl)methyl)-2-ethyl-5,7-dimethyl-3H-imidazo[4,5-b]pyridine]",17.4,46.8,11.8,48600,86.6,23.3
"CCc1nc2c(C)cc(C)nc2n1Cc1ccc(-c2cc(C3=NCCC3)ccc2-c2nn[nH]n2)cc1 [Example 77, 3-((5′-(3,4-dihydro-2H-pyrrol-5-yl)-2′-(2H-tetrazol-5-yl)-[1,1′-biphenyl]-4-yl)methyl)-2-ethyl-5,7-dimethyl-3H-imidazo[4,5-b]pyridine]",60.2,21.1,7.1,204,77.1,90.6
"CCc1nc2c(C)cc(C)nc2n1Cc1ccc(-c2cc(N3CCC(F)(F)CC3)ccc2-c2nn[nH]n2)cc1 [Example 82, 3-((5′-(4,4-difluoropiperidin-1-yl)-2′-(2H-tetrazol-5-yl)-[1,1′-biphenyl]-4-yl)methyl)-2-ethyl-5,7-dimethyl-3H-imidazo[4,5-b]pyridine]",95.7,16.8,–,> 100000,49.6,142
CCc1nc2c(C)cc(C)nc2n1Cc1ccc(-c2cc(N3CC(C)(C)c4ccccc43)ccc2-c2nn[nH]n2)cc1 [Example 84],91.6,35.3,6.6,126,88.9,36.4
CCc1nc2c(C)cc(C)nc2n1Cc1ccc(-c2cc(-n3ccc4cc(F)ccc43)ccc2-c2nn[nH]n2)cc1 [Example 85],18.2,16.9,–,> 100000,88.3,10.5
CCc1nc2c(C)cc(C)nc2n1Cc1ccc(-c2cc(N3CCC(OC)CC3)ccc2-c2nn[nH]n2)cc1 [Example 87],42.5,16.7,7.2,42,29.1,451
CCc1nc2c(C)cc(C)nc2n1Cc1ccc(-c2cc(-n3cccc3)ccc2-c2nn[nH]n2)cc1 [Example 90],55.4,23.2,6.0,39.8,77.7,27.7
CCc1nc2c(C)cc(C)nc2n1Cc1ccc(-c2cc(Nc3ccccc3)ccc2-c2nn[nH]n2)cc1 [Example 93],7.9,32.6,5.4,21.2,82.8,7.5
CCc1nc2c(C)cc(C)nc2n1Cc1ccc(-c2cc(N(C)c3ccccc3)ccc2-c2nn[nH]n2)cc1 [Example 94],13.1,35.9,9.0,32.7,76.8,20.8
CCc1nc2c(C)cc(C)nc2n1Cc1ccc(-c2cc(N3CCc4ccccc43)ccc2-c2nn[nH]n2)cc1 [Example 96],12.6,33.0,5.3,28.7,77.6,12.9
"CCc1nc2c(C)cc(C)nc2n1Cc1ccc(-c2cc(N3CCC(C)CC3)ccc2-c2nn[nH]n2)cc1 [Example 97, 2-ethyl-5,7-dimethyl-3-((5′-(4-methylpiperidin-1-yl)-2′-(2H-tetrazol-5-yl)-[1,1′-biphenyl]-4-yl)methyl)-3H-imidazo[4,5-b]pyridine]",15.1,34.3,7.3,47.3,79.7,31.1
